Literature values, collected in patent US20070117764A1, “Compositions comprising macrolide t-cell immunomodulators or immunosuppressants in combination with antibacterials” (priority 2003, published 2007).

Test system: allogeneic kidney transplantation
Details: rat, oral administration, suppression of systemic immune response

With `C=CC[C@@H]1/C=C(\C)C[C@H](C)C[C@H](OC)[C@H]2O[C@@](O)(C(=O)C(=O)N3CCCC[C@H]3C(=O)O[C@H](/C(C)=C/[C@@H]3CC[C@@H](O)[C@H](OC)C3)[C@H](C)[C@@H](O)CC1=O)[C@H](C)C[C@@H]2OC` [tacrolimus] as the compound, how does the “minimum effective dose (MED)” value read?
The value was 14 mg/kg.
